Earlier results in paper PMC11702666, “The anti-COVID-19 drug Paxlovid crosses biological barriers of the placenta and brain in rats” (npj Viruses, 2024).
Entries after “also recorded” stand apart in the source; their conditions may differ. Read-outs that look alike come from different tables or passages of the source.

Columns and labels:
CYP3A = conditions: cited from earlier work; for AUC0 to infinity: midazolam 2 mg p.o.
[1] = cited from earlier work
[2] = PBPK model LeiCNS-PK3.0; recommended dosing regimen; cited from earlier work
[3] = male rats; cited from earlier work
[4] = oral; cited from earlier work

## Cc1ncc2n1-c1ccc(Cl)cc1C(c1ccccc1F)=NC2 [midazolam]
CYP3A; for midazolam
  increase of apparent CYP3A activity during pregnancy: 35-38%
CYP3A; postpartum
  AUC0 to infinity: 0.0179 ± 0.006 µg·h/mL
CYP3A; pregnancy vs postpartum, from midazolam AUC
  increase in CYP3A activity: 1.88 fold
CYP3A; pregnancy, healthy pregnant women
  AUC0 to infinity: 0.0095 ± 0.0043 µg·h/mL

## CC(C)C(=O)OC[C@H]1O[C@@H](n2ccc(NO)nc2=O)[C@H](O)[C@@H]1O [molnupiravir]
[1]; pregnant rats
  placental barrier transfer: traverse the placental barrier; also recorded: transfer to the placental barrier
[2]
  predicted brain penetration / effective concentrations against SARS-CoV-2: unable to penetrate the BBB
[3]
  blood–brain barrier transfer: exhibit the potential to cross the blood–brain barrier

## CCC(CC)COC(=O)[C@H](C)N[P@](=O)(OC[C@H]1O[C@@](C#N)(c2ccc3c(N)ncnn23)[C@H](O)[C@@H]1O)Oc1ccccc1 [remdesivir]
[1]; experimental animal model
  placental barrier transfer: transfer to the placental barrier
[2]
  predicted brain penetration / effective concentrations against SARS-CoV-2: unable to penetrate the BBB

## CC(C)c1nc(CN(C)C(=O)N[C@H](C(=O)N[C@@H](Cc2ccccc2)C[C@H](O)[C@H](Cc2ccccc2)NC(=O)OCc2cncs2)C(C)C)cs1 [ritonavir]
[4]
  bioavailability: ~80%
